Counter-ions that a name gives are not always drawn.
Biological target: T1, human MAO-B (Homo sapiens, UniProt P27338)
T1 construct: expressed in transfected cells; host or cells: EBNA cells (transient transfection); membranes obtained by homogenisation and centrifugation at 45,000 x g
T1 sequence (P27338 1-520): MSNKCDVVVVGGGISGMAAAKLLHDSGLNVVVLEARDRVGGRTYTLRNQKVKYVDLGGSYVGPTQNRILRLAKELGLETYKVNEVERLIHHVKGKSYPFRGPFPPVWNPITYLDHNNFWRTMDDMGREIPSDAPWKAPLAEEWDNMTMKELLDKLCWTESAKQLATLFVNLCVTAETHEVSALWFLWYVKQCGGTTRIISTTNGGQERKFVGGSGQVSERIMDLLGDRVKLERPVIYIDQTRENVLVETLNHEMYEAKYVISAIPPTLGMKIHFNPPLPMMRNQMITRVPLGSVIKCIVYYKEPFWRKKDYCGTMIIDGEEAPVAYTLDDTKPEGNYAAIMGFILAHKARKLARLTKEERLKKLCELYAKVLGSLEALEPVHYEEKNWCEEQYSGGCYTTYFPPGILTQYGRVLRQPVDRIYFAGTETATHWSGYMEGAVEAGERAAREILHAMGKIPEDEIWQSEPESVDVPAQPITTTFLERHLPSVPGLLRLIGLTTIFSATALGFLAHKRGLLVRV
Test: MAO-B enzymatic activity assay (spectrophotometric, tyramine/Amplex Red) on membranes of transfected EBNA cells
Format: biochemical
Settings: membranes of EBNA cells transfected with human MAO-B cDNA; substrate tyramine; 30 min preincubation at 37° C.; read-out: IC50, MAO-B inhibition
Description: The cDNA's encoding human MAO-A and MAO-B were transiently transfected into EBNA cells using the procedure described by E.-J. Schlaeger and K. Christensen (Transient Gene Expression in Mammalian Cells Grown in Serum-free Suspension Culture; Cytotechnology, 15: 1-13, 1998). After transfection, cells were homogeneised by means of a Polytron homogeneiser in 20 mM Tris HCl buffer, pH 8.0, containing 0.5 mM EGTA and 0.5 mM phenylmethanesulfonyl fluoride. Cell membranes were obtained by centrifugation at 45,000×g and, after two rinsing step with 20 mM Tris HCl buffer, pH 8.0, containing 0.5 mM EGTA, membranes were eventually re-suspended in the above buffer and aliquots stored at −80° C. until use.
MAO-A and MAO-B enzymatic activity was assayed in 96-well-plates using a spectrophotometric assay adapted from the method described by M. Zhou and N. Panchuk-Voloshina (A One-Step Fluorometric Method for the Continuous Measurement of Monoamine Oxidase Activity, Analytical Biochemistry, 253: 169-174, 1997). Briefly, membrane aliquots were incubated in 0.1 M potassium phosphate buffer, pH 7.4, for 30 min at 37° C. with or without various concentrations of the compounds. After this period, the enzymatic reaction was started by the addition of the MAO substrate tyramine together with 1 U/ml horse-radish peroxidase (Roche Biochemicals) and 80 μM N-acetyl-3,7,-dihydroxyphenoxazine (Amplex Red, Molecular Probes). The samples were further incubated for 30 min at 37° C. in a final volume of 200 μl and absorbance was then determined at a wavelength of 570 nm using a SpectraMax plate reader (Molecular Devices). Background (non-specific) absorbance was determined in the presence of 10 μM clorgyline for MAO-A or 10 μM L-deprenyl for MAO-B.
IC50 values were determined from inhibition curves obtained using nine inhibitor concentrations in duplicate, by fitting data to a four parameter logistic equation using a computer program.

Row | IC50 [nM] | SMILES
1 | 8 | COC[C@H](C)NC(=O)c1ccc(OCc2cccc(F)c2)cc1F [Example 4, (S)-2-Fluoro-4-(3-fluoro-benzyloxy)-N-(2-methoxy-1-methyl-ethyl)-benzamide]
2 | 11 | NC(=O)[C@H](CO)NC(=O)c1ccc(OCc2ccc(F)cc2)c(F)c1 [Example 20, (S)-N-(1-Carbamoyl-2-hydroxy-ethyl)-3-fluoro-4-(4-fluoro-benzyloxy)-benzamide]
3 | 11.6 | NC(=O)CNC(=O)c1ccc(OCc2ccc(F)cc2)cc1F [Example 10, 2-[4-(4-Fluorobenzyloxy)-2-fluoro-benzamido]acetamide]
4 | 11.6 | NC(=O)[C@H](CO)NC(=O)c1ccc(OCc2cccc(F)c2)cc1F [Example 5, (S)-N-(1-Carbamoyl-2-hydroxy-ethyl)-2-fluoro-4-(3-fluoro-benzyloxy)-benzamide]
5 | 18 | COCCNC(=O)c1ccc(OCc2ccc(F)cc2)c(F)c1 [Example 22, 3-Fluoro-4-(4-fluoro-benzyloxy)-N-(2-methoxy-ethyl)-benzamide]
6 | 16 | NC(=O)CNC(=O)c1ccc(OCc2ccc(C(F)(F)F)cc2)c(F)c1 [Example 31, 2-[4-(4-Trifluoromethylbenzyloxy)-3-fluoro-benzamido]acetamide]
7 | 19 | NCCNC(=O)c1ccc(OCc2ccc(C(F)(F)F)cc2)c(F)c1 [Example 36, N-(2-Amino-ethyl)-3-fluoro-4-(4-trifluoromethyl-benzyloxy)-benzamide 1:1 hydrochloride]
8 | 5.9 | C[C@H](NC(=O)c1ccc(OCc2cccc(F)c2)cc1F)C(N)=O [Example 1, (S)-N-(1-Carbamoyl-ethyl)-2-fluoro-4-(3-fluoro-benzyloxy)-benzamide]
9 | 7 | C[C@H](NC(=O)c1ccc(OCc2ccc(F)cc2)cc1F)C(N)=O [Example 11, (S)-N-(1-Carbamoyl-ethyl)-2-fluoro-4-(4-fluoro-benzyloxy)-benzamide]
10 | 3.1 | NC(=O)CNC(=O)c1ccc(OCc2ccc(F)cc2)c(F)c1 [Example 19, 2-[4-(4-Fluorobenzyloxy)-3-fluoro-benzamido]acetamide]
11 | 25.7 | C[C@H](NC(=O)c1ccc(OCc2ccc(C(F)(F)F)cc2)cc1F)C(N)=O [Example 12, (S)-N-(1-Carbamoyl-ethyl)-2-fluoro-4-(4-trifluoromethyl-benzyloxy)-benzamide]
12 | 5 | NC(=O)CNC(=O)c1ccc(OCc2cccc(F)c2)c(F)c1 [Example 25, 2-[4-(3-Fluorobenzyloxy)-3-fluoro-benzamido]acetamide]
13 | 19.5 | COCCNC(=O)c1ccc(OCc2cccc(F)c2)cc1F [Example 6, 2-Fluoro-4-(3-fluoro-benzyloxy)-N-(2-methoxy-ethyl)-benzamide]
14 | 25 | NC(=O)[C@H](CO)NC(=O)c1ccc(OCc2ccc(C(F)(F)F)cc2)c(F)c1 [Example 34, (S)-N-(1-Carbamoyl-2-hydroxy-ethyl)-3-fluoro-4-(4-trifluoromethyl-benzyloxy)-benzamide]
15 | 15.3 | NC(=O)CNC(=O)c1ccc(OCc2cccc(F)c2)cc1F [Example 2, 2-[4-(3-Fluorobenzyloxy)-2-fluoro-benzamido]acetamide]
16 | 22 | C[C@H](NC(=O)c1c(F)cc(OCc2ccc(F)cc2)cc1F)C(N)=O [Example 37, (S)-N-(1-Carbamoyl-ethyl)-2,6-difluoro-4-(4-fluoro-benzyloxy)-benzamide]
17 | 24 | COCCNC(=O)c1c(F)cc(OCc2cccc(F)c2)cc1F [Example 51, 2,6-Difluoro-4-(3-fluoro-benzyloxy)-N-(2-methoxy-ethyl)-benzamide]
18 | 7 | C[C@H](NC(=O)c1ccc(OCc2ccc(F)cc2)c(F)c1)C(N)=O [Example 18, (S)-N-(1-Carbamoyl-ethyl)-3-fluoro-4-(4-fluoro-benzyloxy)-benzamide]
19 | 13 | COCCNC(=O)c1c(F)cc(OCc2ccc(F)cc2)cc1F [Example 41, 2,6-Difluoro-4-(4-fluoro-benzyloxy)-N-(2-methoxy-ethyl)-benzamide]
20 | 19 | C[C@H](NC(=O)c1ccc(OCc2cccc(F)c2)c(F)c1)C(N)=O [Example 26, (S)-N-(1-Carbamoyl-ethyl)-3-fluoro-4-(3-fluoro-benzyloxy)-benzamide]
21 | 27 | NC(=O)CNC(=O)c1c(F)cc(OCc2ccc(F)cc2)cc1F [Example 39, N-Carbamoylmethyl-2,6-difluoro-4-(4-fluoro-benzyloxy)-benzamide]
22 | 12 | NC(=O)[C@H](CO)NC(=O)c1ccc(OCc2cccc(F)c2)c(F)c1 [Example 28, (S)-N-(1-Carbamoyl-2-hydroxy-ethyl)-3-fluoro-4-(3-fluoro-benzyloxy)-benzamide]
23 | 23 | C[C@@H](CO)NC(=O)c1c(F)cc(OCc2ccc(F)cc2)cc1F [Example 45, (S)-2,6-Difluoro-4-(4-fluoro-benzyloxy)-N-(2-hydroxy-1-methyl-ethyl)-benzamide]
24 | 23 | C[C@@H](NC(=O)c1ccc(OCc2cccc(F)c2)c(F)c1)C(N)=O [Example 27, (R)-N-(1-Carbamoyl-ethyl)-3-fluoro-4-(3-fluoro-benzyloxy)-benzamide]

Source: patent publication US6951884B2, “Fluorobenzamides and uses thereof” (Hoffmann-La Roche Inc., priority 2002, dated 2005)
